# Like-named read-outs stand apart in the source and are kept apart here.
# What was measured:
# Assay type in all cases: cell-based
# [1] = test system: Plasmodium falciparum TM91C235; experiment: In vitro antimalarial [3H]-hypoxanthine incorporation assay, TM91C235; details: P. falciparum TM91C235 (multiple drug resistant isolate), 72 hours exposure; for IC50: Plasmodium falciparum
# From the text: (§1) The in vitro screens for intrinsic antimalarial activity were based on modifications of the procedures described by Desjardins R E, Canfield C J, Haynes J D, Chulay J D. (Quantitative assessment of antimalarial activity in vitro by a semiautomated microdilution technique. Antimicrob Agents Chemother. 1979 December; 16(6):710-8.), Chulay J D, Haynes J D, Diggs C L. (Plasmodium falciparum: Assessment of in vitro growth by [3H]hypoxanthine incorporation. Exp. Parasitol. 1983 55:138-146.), and Milhous W K, Weatherly N F, Bowdre J H, Desjardins R E. (In vitro activities of and mechanisms of resistance to antifol antimalarial drugs. Antimicrob Agents Chemother. 1985 April; 27(4):525-30.). The system was limited to the assessment of the intrinsic activity against the erythrocytic asexual life cycle (blood schizontocides). Two Plasmodium falciparum clones from CDC/Indochina III (W-2) and CDC/Sierra Leone I (D-6) (Oduola A M, Weatherly N F, Bowdre J H, Desjardins R E. Plasmodium falciparum: cloning by single-erythrocyte micromanipulation and heterogeneity in vitro. Exp Parasitol. 1988 66(1):86-95.) were used for all assays. TM91C235, a multiple drug resistant isolate from Thailand, was used for the prescreening assay. W-2 is resistant to chloroquine, quinine, and pyrimethamine and susceptible to mefloquine. D-6 tends to be more resistant to mefloquine and susceptible to chloroquine, quinine, and pyrimethamine. All documents cited in this paragraph are incorporated by reference in their entirety.
# (§2) All parasites were maintained in continuous long term cultures in RPMI-1640 medium supplemented with 6% washed human A positive (A+)(erythrocytes, 25 mM Hepes, […], and 10% heat inactivated A+human plasma or ALBUMAX® (lipid-rich bovine serum albumin; Invitrogen, Carlsbad, Calif.). All cultures and assays were conducted at 37° C. under an atmosphere of 5% CO2 and 5% O2, with a balance of N2.
# The prescreening assay uses TM91C235 diluted at a 0.4% parasitemia in a 1% hematocrit in folic acid free and p-aminobenzoic acid free media RPMI-1640 and ALBUMAX®. One mg of the compound is typically dissolved in 100 μl of dimethyl sulfoxide (DMSO). The compound is further diluted in culture medium (FF) with ALBUMAX® for the first initial starting concentration. The rest of the stock drug solution was kept at −70° C. The isolate was preexposed, in duplicate, at three concentrations (25,000 ng/ml, 2,500 ng/ml, and 25 ng/ml) of the test compound for 48 hr in a 96-well microtiter plate (MTP) using the BIOMEK® 2000 automated laboratory workstation. Each MTP contains chloroquine as control to assess the relative activity of the compound and to monitor the response of TM91C235.
# (§3) After the preincubation, [^3H]-hypoxanthine was added to each well of the MTP. (The assay relies on the incorporation of radiolabeled hypoxanthine by the parasites, which indicates reproduction, and inhibition of isotope incorporation was attributed to activity of known or candidate antimalarial drugs). After 72 hr of total incubation time, the MTP were frozen to lyse the erythrocytes and parasites. The parasite DNA was recovered by harvesting the lysate onto glass-fiber filter plates using a Packard FilterMate™ Cell Harvester. The radioactivity was counted on a Packard TopCount™ microplate scintillation counter. The results were recorded as counts per minutes (CPM) per well at each drug concentration divided by the arithmetic mean of the CPM from the three untreated infection parasite control wells.
# The serial dilution assay was conducted using the same assay conditions and stock solution of the compound used for the preliminary screen, described above. Both the D-6 and the W-2 clones were used. The compounds were diluted two-fold over 11 different concentration ranges with a starting concentration that was based on the preliminary screen. […]
# [2] = test system: Plasmodium falciparum clone CDC/Indochina III (W-2); experiment: In vitro antimalarial [3H]-hypoxanthine incorporation serial dilution assay, W2; details: P. falciparum W2, 72 hours exposure; for IC50: Plasmodium falciparum
# From the text: as §1, §2, §3
# (§4) The serial dilution assay was conducted using the same assay conditions and stock solution of the compound used for the preliminary screen, described above. Both the D-6 and the W-2 clones were used. The compounds were diluted two-fold over 11 different concentration ranges with a starting concentration that was based on the preliminary screen. For each drug, the concentration response profile was determined and 50% inhibitory concentrations (IC50) were determined by using a non-linear, logistic dose response analysis program. […] For each assay, the IC50 for each clone was determined against the known antimalarials chloroquine and mefloquine. These control values established the compound's relative parasite susceptibility profile compared to known antimalarials. […]
# (§5) The in vitro potency of the compounds has been compared with that of azithromycin to better gauge compounds suitable for further testing. As described above, parasites were exposed for 72 hours. Data from the in vitro potency tests of azithromycin against the three parasite strains have been averaged, and these numbers have been used for identification of “active” macrolide compounds.
# [3] = test system: Plasmodium falciparum clone CDC/Sierra Leone I (D-6); experiment: In vitro antimalarial [3H]-hypoxanthine incorporation serial dilution assay, D6; details: P. falciparum D6, 72 hours exposure; for IC50: Plasmodium falciparum, D6, 72 h
# From the text: as §1, §2, §3, §4, §5
# [4] = compared with azithromycin, read-out: IC50 D6 (class symbol)
smiles,measurement,setting,value
"CC[C@H]1OC(=O)[C@H](C)[C@@H](O[C@H]2C[C@@](C)(OC)[C@@H](O)[C@H](C)O2)[C@H](C)[C@@H](O[C@@H]2O[C@H](C)C[C@H](N(C)C)[C@H]2O)[C@](C)(O)C[C@@H](C)CN(CCNC(=O)NC(C)C)[C@H](C)[C@@H](O)[C@]1(C)O [Example 1, 9-Deoxo-9-dihydro-9a-(N′-isopropylcarbamoyl-β-aminoethyl)-9a-aza-9a-homoerythromycin A]",IC50 TM91C235,[1],0.6191 mg/L
same,IC50 W2,[2],1.777 mg/L
"CCC1OC(=O)C(C)C(OC2CC(C)(OC)C(O)C(C)O2)C(C)C(OC2OC(C)CC(N(C)C)C2O)C(C)(O)CC(C)CN(CCNC(=O)Nc2cccc3ccccc23)C(C)C(O)C1(C)O (stereo not drawn) [Example 2, 9-Deoxo-9-dihydro-9a-[N′-(1-naphtyl)carbamoyl-β-aminoethyl]-9a-aza-9a-homoerythromycin A]",IC50 TM91C235,[1],0.0399 mg/L
same,IC50 D6,[3],0.1344 mg/L
same,IC50 W2,[2],0.0744 mg/L
"CCC1OC(=O)C(C)C(OC2CC(C)(OC)C(O)C(C)O2)C(C)C(OC2OC(C)CC(N(C)C)C2O)C(C)(O)CC(C)CN(CCNC(=O)NCc2ccccc2)C(C)C(O)C1(C)O (stereo not drawn) [Example 3, 9-Deoxo-9-dihydro-9a-(N′-benzylcarbamoyl-β-aminoethyl)-9a-aza-9a-homoerythromycin A]",IC50 TM91C235,[1],0.1547 mg/L
same,IC50 D6,[3],0.292 mg/L
same,IC50 W2,[2],0.2617 mg/L
"CCC1OC(=O)C(C)C(OC2CC(C)(OC)C(O)C(C)O2)C(C)C(OC2OC(C)CC(N(C)C)C2O)C(C)(O)CC(C)CN(CCNC(=O)Nc2ccc3ccccc3c2)C(C)C(O)C1(C)O (stereo not drawn) [Example 12, 9-Deoxo-9-dihydro-9a-[N′-(2-naphtyl)carbamoyl-β-aminoethyl]-9a-aza-9a-homoerythromycin A]",IC50 TM91C235,[1],0.0289 mg/L
same,IC50 D6,[3],0.0713 mg/L
same,IC50 W2,[2],0.0432 mg/L
CC[C@H]1OC(=O)[C@H](C)[C@@H](O[C@H]2C[C@@](C)(OC)[C@@H](O)[C@H](C)O2)[C@H](C)[C@@H](O[C@@H]2O[C@H](C)C[C@H](N(C)C)[C@H]2O)[C@](C)(O)C[C@@H](C)CN(CCCNC(=O)NC(C)(C)C)[C@H](C)[C@@H](O)[C@]1(C)O [Example 53],IC50,[1],0.713 mg/L
same,IC50,[3]; [4],> 0.797 mg/L
same,IC50,[2],0.366 mg/L
CCC(C)NC(=O)NCCCN1C[C@H](C)C[C@@](C)(O)[C@H](O[C@@H]2O[C@H](C)C[C@H](N(C)C)[C@H]2O)[C@@H](C)[C@H](O[C@H]2C[C@@](C)(OC)[C@@H](O)[C@H](C)O2)[C@@H](C)C(=O)O[C@H](CC)[C@@](C)(O)[C@H](O)[C@H]1C (stereo partly drawn) [Example 55],IC50,[1],1.05 mg/L
same,IC50,[3]; [4],> 0.797 mg/L
same,IC50,[2],0.435 mg/L
CC[C@H]1OC(=O)[C@H](C)[C@@H](O[C@H]2C[C@@](C)(OC)[C@@H](O)[C@H](C)O2)[C@H](C)[C@@H](O[C@@H]2O[C@H](C)C[C@H](N(C)C)[C@H]2O)[C@](C)(O)C[C@@H](C)CN(CCCNC(=O)NC2CCCC2)[C@H](C)[C@@H](O)[C@]1(C)O [Example 56],IC50,[1],0.556 mg/L
same,IC50,[3]; [4],> 0.797 mg/L
same,IC50,[2],0.251 mg/L
CC[C@H]1OC(=O)[C@H](C)[C@@H](O[C@H]2C[C@@](C)(OC)[C@@H](O)[C@H](C)O2)[C@H](C)[C@@H](O[C@@H]2O[C@H](C)C[C@H](N(C)C)[C@H]2O)[C@](C)(O)C[C@@H](C)CN(CCCNC(=O)NCc2ccco2)[C@H](C)[C@@H](O)[C@]1(C)O [Example 57],IC50,[1],0.454 mg/L
same,IC50,[3]; [4],> 0.797 mg/L
same,IC50,[2],0.263 mg/L
CC[C@H]1OC(=O)[C@H](C)[C@@H](O[C@H]2C[C@@](C)(OC)[C@@H](O)[C@H](C)O2)[C@H](C)[C@@H](O[C@@H]2O[C@H](C)C[C@H](N(C)C)[C@H]2O)[C@](C)(O)C[C@@H](C)CN(CCCNC(=O)NC2CCCCC2)[C@H](C)[C@@H](O)[C@]1(C)O [Example 58],IC50,[1],0.377 mg/L
same,IC50,[3]; [4],> 0.797 mg/L
same,IC50,[2],0.169 mg/L
CC[C@H]1OC(=O)[C@H](C)[C@@H](O[C@H]2C[C@@](C)(OC)[C@@H](O)[C@H](C)O2)[C@H](C)[C@@H](O[C@@H]2O[C@H](C)C[C@H](N(C)C)[C@H]2O)[C@](C)(O)C[C@@H](C)CN(CCCNC(=O)Nc2ccc(C#N)cc2)[C@H](C)[C@@H](O)[C@]1(C)O [Example 59],IC50,[1],0.193 mg/L
same,IC50,[3]; read-out: IC50 D6,0.362 mg/L
same,IC50,[2],0.092 mg/L
CCc1ccc(NC(=O)NCCCN2C[C@H](C)C[C@@](C)(O)[C@H](O[C@@H]3O[C@H](C)C[C@H](N(C)C)[C@H]3O)[C@@H](C)[C@H](O[C@H]3C[C@@](C)(OC)[C@@H](O)[C@H](C)O3)[C@@H](C)C(=O)O[C@H](CC)[C@@](C)(O)[C@H](O)[C@H]2C)cc1 [Example 60],IC50,[1],0.0933 mg/L
same,IC50,[3]; read-out: IC50 D6,0.212 mg/L
same,IC50,[2],0.0693 mg/L
CC[C@H]1OC(=O)[C@H](C)[C@@H](O[C@H]2C[C@@](C)(OC)[C@@H](O)[C@H](C)O2)[C@H](C)[C@@H](O[C@@H]2O[C@H](C)C[C@H](N(C)C)[C@H]2O)[C@](C)(O)C[C@@H](C)CN(CCCNC(=S)Nc2ccc(OC)cc2)[C@H](C)[C@@H](O)[C@]1(C)O.O=CO [Example 61],IC50,[1],0.436 mg/L
same,IC50,[3]; [4],> 0.797 mg/L
same,IC50,[2],0.253 mg/L
CC[C@H]1OC(=O)[C@H](C)[C@@H](O[C@H]2C[C@@](C)(OC)[C@@H](O)[C@H](C)O2)[C@H](C)[C@@H](O[C@@H]2O[C@H](C)C[C@H](N(C)C)[C@H]2O)[C@](C)(O)C[C@@H](C)CN(CCCNC(=S)Nc2cc(F)ccc2C)[C@H](C)[C@@H](O)[C@]1(C)O [Example 62],IC50,[1],0.11 mg/L
same,IC50,[3]; read-out: IC50 D6,0.373 mg/L
same,IC50,[2],0.0502 mg/L
CC[C@H]1OC(=O)[C@H](C)[C@@H](O[C@H]2C[C@@](C)(OC)[C@@H](O)[C@H](C)O2)[C@H](C)[C@@H](O[C@@H]2O[C@H](C)C[C@H](N(C)C)[C@H]2O)[C@](C)(O)C[C@@H](C)CN(CCCNC(=O)Nc2ccc(CC#N)cc2)[C@H](C)[C@@H](O)[C@]1(C)O [Example 63],IC50,[1],0.542 mg/L
same,IC50,[3]; [4],> 0.797 mg/L
same,IC50,[2],0.141 mg/L
"CC[C@H]1OC(=O)[C@H](C)[C@@H](O[C@H]2C[C@@](C)(OC)[C@@H](O)[C@H](C)O2)[C@H](C)[C@@H](O[C@@H]2O[C@H](C)C[C@H](N(C)C)[C@H]2O)[C@](C)(O)C[C@@H](C)CN(CCCN(CCC(N)=O)C(=S)NCCCc2ccccc2)[C@H](C)[C@@H](O)[C@]1(C)O [Example 167, 9-Deoxo-9-dihydro-9a-{N′-(β-amidoethyl)-N′-[γ-(phenylpropyl)thiocarbamoyl]-γ-aminopropyl}-9a-aza-9a-homoerythromycin A]",IC50,[1],0.0572 mg/L
same,IC50,[3]; read-out: IC50 D6,0.127 mg/L
CC[C@H]1OC(=O)[C@H](C)[C@@H](O)[C@H](C)[C@@H](O[C@@H]2O[C@H](C)C[C@H](N(C)C)[C@H]2O)[C@](C)(O)C[C@@H](C)CN(CCCN(CCC#N)C(=S)NCCc2ccccc2)[C@H](C)[C@@H](O)[C@]1(C)O [Example 170],IC50,[1],0.128 mg/L
same,IC50,[3]; read-out: IC50 D6,0.543 mg/L

# Reference: patent US20080200404A1, “Novel Antimalarial 9A-Carbamoyl-Aminoalkyl and 9A-Thiocarbamoyl-Aminoalkyl Azalides” (priority 2005, published 2008)
